Literature values, collected in patent EP2374448A1, “Oral film formulation” (Labtec GmbH, priority 2010, dated 2011).
Like-named read-outs stand apart in the source and are kept apart here.

[1] = oral administration, overall range

Tmax after oral administration [1]	further results	Molecule
	Tmax after oral administration (in vivo, po): 0.25 - 1 (preferably 0.5) h	4-(5-Methoxy-4-pyrimidinyl)-1-[3-[5-[[(methylamino)-sulfonyl]methyl]-1H-indole-3-yl]propyl]piperazine [Avitriptan]
0.5 - 4 (preferably 1.0 - 3.0) h		CN(C)CCc1c[nH]c2ccc(CS(=O)(=O)N3CCCC3)cc12 [Almotriptan, I-[[[3-[2-(dimethylamino)ethyl]-1H-indole-5-yl]methyl]sulfonyl]pyrrolidine]
1.0 - 3 (preferably 1.5 - 2.0) h		CN1CCC[C@@H]1Cc1c[nH]c2ccc(CCS(=O)(=O)c3ccccc3)cc12 [Eletriptan, (R)-3-[(I-Methyl-2-pyrrolidinyl)methyl]-5-[2-(phenylsulfonyl)ethyl]-1H-indole]
0.5 - 4 (preferably 1.0 - 3.0) h		CN[C@@H]1CCc2[nH]c3ccc(C(N)=O)cc3c2C1 [Frovatriptan, (+)-(R)-3-methylamino-6-carboxamido-1,2,3,4-tetrahydrocarbazole]
0.5 - 3 (preferably 1.0 - 2.5) h		CN(C)CCc1c[nH]c2ccc(Cn3cncn3)cc12 [Rizatriptan, N,N-dimethyl-5-(IH-1,2,4-triazol-l-ylmethyl)-1H-indole-3-ethanamine]
1.5 - 3 (preferably 2 - 2.5) h		CNS(=O)(=O)Cc1ccc2[nH]cc(CCN(C)C)c2c1 [Sumatriptan, 3-[2-(dimethylamino)ethyl]-N-methyl-1H-indole-5-methanesulfonamide]
1 to 4 h	Tmax after oral administration (oral administration, during attack): 2.5 to 3 h; Tmax after oral administration (oral administration, migraine free period): 1 to 2 h	CN(C)CCc1c[nH]c2ccc(C[C@H]3COC(=O)N3)cc12 [zolmitriptan, (S)-(4)-[[3-[2-(dimethylamino)ethyl]-1H-indole-5yl]methyl]-2-oxazolidinone]
	Tmax after oral administration (in vivo, po): 1.5 - 4.5 (preferably 2.0 - 4.0) h	N-methyl-3-(1-methyl-4-piperidinyl)-1H-indole-5-ethanesulfonamide [Naratriptan]
